The values that follow come from patent publication US12612384B2, “Heterocyclic CYP4A inhibitor compounds and compositions thereof” (MBD CO., LTD., priority 2021, dated 2026).

The inhibition is the drop in the measured response relative to a control, in per cent.

For the first experiment, the target named is T1, CYP4A (Homo sapiens, UniProt Q02928).
T1 construct: purchased; host or cells: bacterial membranes ('bactosome')
T1 sequence (Q02928 5-519): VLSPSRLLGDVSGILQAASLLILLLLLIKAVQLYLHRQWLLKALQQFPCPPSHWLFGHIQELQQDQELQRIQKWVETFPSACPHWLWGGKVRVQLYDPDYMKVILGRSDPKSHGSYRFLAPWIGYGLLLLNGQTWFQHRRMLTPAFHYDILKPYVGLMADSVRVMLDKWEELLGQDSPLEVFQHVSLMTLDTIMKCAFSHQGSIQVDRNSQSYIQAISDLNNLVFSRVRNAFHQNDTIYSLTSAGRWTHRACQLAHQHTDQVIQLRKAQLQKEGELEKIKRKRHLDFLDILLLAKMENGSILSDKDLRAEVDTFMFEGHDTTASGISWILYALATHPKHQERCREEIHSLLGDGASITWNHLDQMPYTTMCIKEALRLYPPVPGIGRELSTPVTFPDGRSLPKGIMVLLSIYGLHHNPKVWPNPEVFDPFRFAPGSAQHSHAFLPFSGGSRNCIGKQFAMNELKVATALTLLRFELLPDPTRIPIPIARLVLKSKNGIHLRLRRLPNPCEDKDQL
Description: CYP4A enzyme assay (luminescence, Luciferin-ME). As to conditions: Compound concentration 5 μM; 70%-90%; read-out: % Inhibition 70%-90%. The class given is biochemical. The procedure:
The CYP4A inhibitory activity of the above compounds of the examples was measured. The reagents used in the experiment were commercially available, and were prepared and used when necessary. The device used for measuring activity was SpectraMax of MOLECULAR DEVICES.
CYP4A bactosome and the compounds to be evaluated (5 μM) were each diluted in assay buffer (100 mM KPO4, 0.1% BSA, 1 mM DTT) and mixed in a 384 well plate (white opaque polystyrene nontreated flat-bottom well), and reaction was carried out at room temperature for 15 minutes. To induce CYP4A reaction, 5 mM Luciferin-ME, NADPH Regeneration system (10× sol. A, 20× sol. B in assay buffer, Cat. Number: V865B, Promega) were sequentially added and mixed, and the reaction was carried out at room temperature for 30 minutes. Then, Luciferin Detection reagent was added thereto and reacted at room temperature for 15 minutes to stop the CYP4A reaction and induce a luminescence reaction. Finally, after measuring the luminescence value using a microplate reader, the inhibition of CYP4A activity by the compounds was evaluated by comparing the luminescence value from each well.
For the molecule `O=C(C1CCN(S(=O)(=O)c2ccc(Br)cc2)C1)N1CCN(c2ccnc3cc(F)ccc23)CC1` (centres unmarked) [Example 16, (1-((4-bromophenyl)sulfonyl)pyrrolidin-3-yl)(4-(7-fluoroquinolin-4-yl)piperazin-1-yl)methanone], the inhibition at 5 µM was in the range of 70 to 90%.

The experiment is the same for the next values; noted with them: Compound concentration 5 μM; Greater than 90%; read-out: % Inhibition Greater than 90%.
`CC(=O)Nc1ccc(S(=O)(=O)N2CCC(C(=O)N3CCN(c4ccnc5cc(F)ccc45)CC3)C2)cc1` (centres unmarked) [Example 1, N-(4-((3-(4-(7-fluoroquinolin-4-yl)piperazine-1-carbonyl)pyrrolidin-1-yl)sulfonyl)phenyl)acetamide]: the inhibition at 5 µM was > 90%.

Consider `CC(=O)Nc1ccc(S(=O)(=O)N2CC[C@@H](C(=O)N3CCN(c4ccnc5cc(F)ccc45)CC3)C2)cc1` [Example 2, (R)—N-(4-((3-(4-(7-fluoroquinolin-4-yl)piperazine-1-carbonyl)pyrrolidin-1-yl)sulfonyl)phenyl)acetamide], for which the inhibition at 5 µM was > 90%. In the case of `CN(C)c1ccc(S(=O)(=O)N2CCC(C(=O)N3CCN(c4ccnc5cc(F)ccc45)CC3)C2)cc1` (centres unmarked) [Example 3, (1-((4-(dimethylamino)phenyl)sulfonyl)pyrrolidin-3-yl)(4-(7-fluoroquinolin-4-yl)piperazin-1-yl)methanone], the inhibition at 5 µM was > 90%. The same measure, in the same setting: to `O=C(C1CCN(S(=O)(=O)c2ccc(O)cc2)C1)N1CCN(c2ccnc3cc(F)ccc23)CC1` (centres unmarked) [Example 4, (4-(7-fluoroquinolin-4-yl)piperazin-1-yl)(1-((4-hydroxyphenyl)sulfonyl)pyrrolidin-3-yl)methanone] belongs > 90%; to `Cn1ccnc1S(=O)(=O)N1CCC(C(=O)N2CCN(c3ccnc4cc(F)ccc34)CC2)C1` (centres unmarked) [Example 5, (4-(7-fluoroquinolin-4-yl)piperazin-1-yl)(1-((1-methyl-1H-imidazol-2-yl)sulfonyl)pyrrolidin-3-yl)methanone], > 90%; to `Cn1ccnc1S(=O)(=O)N1CC[C@@H](C(=O)N2CCN(c3ccnc4cc(F)ccc34)CC2)C1` [Example 6, (R)-(4-(7-fluoroquinolin-4-yl)piperazin-1-yl)(1-((1-methyl-1H-imidazol-2-yl)sulfonyl)pyrrolidin-3-yl)methanone], > 90%.

As to `Cn1ccnc1S(=O)(=O)N1CC[C@H](C(=O)N2CCN(c3ccnc4cc(F)ccc34)CC2)C1` [Example 7, (S)-(4-(7-fluoroquinolin-4-yl)piperazin-1-yl)(1-((1-methyl-1H-imidazol-2-yl)sulfonyl)pyrrolidin-3-yl)methanone], the inhibition at 5 µM was > 90%.

Take `O=C(C1CCN(S(=O)(=O)c2ccc([N+](=O)[O-])cc2)C1)N1CCN(c2ccnc3cc(F)ccc23)CC1` (centres unmarked) [Example 8, (4-(7-fluoroquinolin-4-yl)piperazin-1-yl)(1-((4-nitrophenyl)sulfonyl)pyrrolidin-3-yl)methanone]: the inhibition at 5 µM was > 90%.

Take `CC(=O)Nc1cccc(S(=O)(=O)N2CCC(C(=O)N3CCN(c4ccnc5cc(F)ccc45)CC3)C2)c1` (centres unmarked) [Example 9, N-(3-((3-(4-(7-fluoroquinolin-4-yl)piperazine-1-carbonyl)pyrrolidin-1-yl)sulfonyl)phenyl)acetamide]: the inhibition at 5 µM was > 90%. In the case of `O=C(C1CCN(S(=O)(=O)c2ncn[nH]2)C1)N1CCN(c2ccnc3cc(F)ccc23)CC1` (centres unmarked) [Example 10, (1-((1H-1,2,4-triazol-5-yl)sulfonyl)pyrrolidin-3-yl)(4-(7-fluoroquinolin-4-yl)piperazin-1-yl)methanone], the inhibition at 5 µM is > 90%. Same read-out and setting: to `Cc1n[nH]c(C)c1S(=O)(=O)N1CCC(C(=O)N2CCN(c3ccnc4cc(F)ccc34)CC2)C1` (centres unmarked) [Example 11, (1-((3,5-dimethyl-1H-pyrazol-4-yl)sulfonyl)pyrrolidin-3-yl)(4-(7-fluoroquinolin-4-yl)piperazin-1-yl)methanone] belongs > 90%; to `Cc1nn(C)c(C)c1S(=O)(=O)N1CCC(C(=O)N2CCN(c3ccnc4cc(F)ccc34)CC2)C1` (centres unmarked) [Example 12, (4-(7-fluoroquinolin-4-yl)piperazin-1-yl)(1-((1,3,5-trimethyl-1H-pyrazol-4-yl)sulfonyl)pyrrolidin-3-yl)methanone], > 90%; to `O=C(C1CCN(S(=O)(=O)c2ncc[nH]2)C1)N1CCN(c2ccnc3cc(F)ccc23)CC1` (centres unmarked) [Example 13, (1-((1H-imidazol-2-yl)sulfonyl)pyrrolidin-3-yl)(4-(7-fluoroquinolin-4-yl)piperazin-1-yl)methanone], > 90%. With `Cn1cncc1S(=O)(=O)N1CCC(C(=O)N2CCN(c3ccnc4cc(F)ccc34)CC2)C1` (centres unmarked) [Example 14, (4-(7-fluoroquinolin-4-yl)piperazin-1-yl)(1-((1-methyl-1H-imidazol-5-yl)sulfonyl)pyrrolidin-3-yl)methanone], the inhibition at 5 µM is > 90%. As for `O=C(C1CCN(S(=O)(=O)c2ccc(-c3cnco3)cc2)C1)N1CCN(c2ccnc3cc(F)ccc23)CC1` (centres unmarked) [Example 15, (4-(7-fluoroquinolin-4-yl)piperazin-1-yl)(1-((4-(oxazol-5-yl)phenyl)sulfonyl)pyrrolidin-3-yl)methanone], the inhibition at 5 µM is > 90%. On the same count and under the same terms, to `O=C(C1CCN(S(=O)(=O)c2ccc(-c3ccncc3)cc2)C1)N1CCN(c2ccnc3cc(F)ccc23)CC1` (centres unmarked) [Example 17, (4-(7-fluoroquinolin-4-yl)piperazin-1-yl)(1-((4-(pyridin-4-yl)phenyl)sulfonyl)pyrrolidin-3-yl)methanone] belongs > 90%; to `O=C([C@@H]1CCN(S(=O)(=O)c2ccc(-c3ccncc3)cc2)C1)N1CCN(c2ccnc3cc(F)ccc23)CC1` [Example 18, (R)-(4-(7-fluoroquinolin-4-yl)piperazin-1-yl)(1-((4-(pyridin-4-yl)phenyl)sulfonyl)pyrrolidin-3-yl)methanone], > 90%. Same read-out and setting: the figure for `O=C([C@H]1CCN(S(=O)(=O)c2ncn[nH]2)C1)N1CCN(c2ccnc3cc(F)ccc23)CC1` [Example 19, (S)-(1-((1H-1,2,4-triazol-5-yl)sulfonyl)pyrrolidin-3-yl)(4-(7-fluoroquinolin-4-yl)piperazin-1-yl)methanone] is > 90%; for `CC(C)(C)c1n[nH]c(S(=O)(=O)N2CCC(C(=O)N3CCN(c4ccnc5cc(F)ccc45)CC3)C2)n1` (centres unmarked) [Example 20, (1-((5-(tert-butyl)-4H-1,2,4-triazol-3-yl)sulfonyl)pyrrolidin-3-yl)(4-(7-fluoroquinolin-4-yl)piperazin-1-yl)methanone] it is > 90%. Regarding `CC(=O)Nc1ccc(S(=O)(=O)N2CCC(C(=O)N3CCN(c4ccnc5ccccc45)CC3)C2)cc1` (centres unmarked) [Example 21, N-(4-((3-(4-(quinolin-4-yl)piperazine-1-carbonyl)pyrrolidin-1-yl)sulfonyl)phenyl)acetamide], the inhibition at 5 µM was > 90%. Turning to `CC(=O)Nc1ccc(S(=O)(=O)N2CC[C@@H](C(=O)N3CCN(c4ccnc5ccccc45)CC3)C2)cc1` [Example 22, (R)—N-(4-((3-(4-(quinolin-4-yl)piperazine-1-carbonyl)pyrrolidin-1-yl)sulfonyl)phenyl)acetamide], the inhibition at 5 µM is > 90%. With `CC(=O)Nc1ccc(S(=O)(=O)N2CC[C@H](C(=O)N3CCN(c4ccnc5ccccc45)CC3)C2)cc1` [Example 23, (S)—N-(4-((3-(4-(quinolin-4-yl)piperazine-1-carbonyl)pyrrolidin-1-yl)sulfonyl)phenyl)acetamide], the inhibition at 5 µM was > 90%.
